Results reported in patent publication US20260265271A1, “Cereblon Ligands and Uses Thereof” (REGENTS OF THE UNIVERSITY OF MICHIGAN, priority 2022, published 2026).
Counter-ions that a name gives are not always drawn. Like-named read-outs stand apart in the source and are kept apart here.

Legend:
[1] = molecular target: wild-type human CRBN protein (Homo sapiens, UniProt Q96SW2); assay: biochemical
IKZF2 = molecular target: T1, IKZF2 (Homo sapiens, UniProt Q96SW2+Q9UKS7); assay: IKZF2 HiBiT degradation assay (Jurkat-IKZF2-HiBiT); assay type: cell-based; details: for DC50: read-out: IKZF2 degradation DC50; for Dmax: read-out: IKZF2 degradation Dmax (%)
T1 construct: host or cells: Jurkat-IKZF2-HiBiT
Experimental: Degradation of IKZF2 protein was determined by IKZF2 HiBiT assay using the Jurkat-IKZF2-HiBiT (Promega) cell line. […] Compounds were serially diluted in culture medium, and 20 μl of the diluted compounds were added to the appropriate wells of the plate. After the addition of compounds, the cells were incubated at 37° C. in an atmosphere of 5% CO2 for 24 hours. At the end of treatment, 40 ul of Nano-Glo HiBiT Lytic Detection Reagent (Promega) was added to each well, and then the plates were incubated at room temperature for 10-20 minutes. The luminescent signal was measured using a CALRIOstar plate reader (BMG Labtech). The readings were normalized to the DMSO-treated cells and the IC50 was calculated by nonlinear regression (four parameters sigmoid fitted with variable slope, least squares fit, and no constraint) analysis using the GraphPad Prism 8 software.

[2] = Jurkat-IKZF2-HiBiT cells, 24 hours

T1 sequence (Q9UKS7 whole entry): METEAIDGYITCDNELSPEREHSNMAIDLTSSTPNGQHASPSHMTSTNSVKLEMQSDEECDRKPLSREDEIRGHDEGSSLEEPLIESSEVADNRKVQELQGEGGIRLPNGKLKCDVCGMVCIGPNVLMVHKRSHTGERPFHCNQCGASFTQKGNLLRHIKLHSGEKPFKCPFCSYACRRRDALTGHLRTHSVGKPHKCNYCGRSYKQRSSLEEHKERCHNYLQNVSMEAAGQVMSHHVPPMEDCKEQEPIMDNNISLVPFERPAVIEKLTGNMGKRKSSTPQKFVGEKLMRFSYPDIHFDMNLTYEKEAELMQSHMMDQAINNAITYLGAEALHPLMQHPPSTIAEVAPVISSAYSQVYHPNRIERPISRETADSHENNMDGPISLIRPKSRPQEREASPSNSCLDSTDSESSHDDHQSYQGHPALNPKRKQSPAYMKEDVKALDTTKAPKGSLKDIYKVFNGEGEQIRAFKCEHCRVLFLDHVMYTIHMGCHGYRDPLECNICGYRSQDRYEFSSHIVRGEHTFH
T1 sequence (Q96SW2 whole entry): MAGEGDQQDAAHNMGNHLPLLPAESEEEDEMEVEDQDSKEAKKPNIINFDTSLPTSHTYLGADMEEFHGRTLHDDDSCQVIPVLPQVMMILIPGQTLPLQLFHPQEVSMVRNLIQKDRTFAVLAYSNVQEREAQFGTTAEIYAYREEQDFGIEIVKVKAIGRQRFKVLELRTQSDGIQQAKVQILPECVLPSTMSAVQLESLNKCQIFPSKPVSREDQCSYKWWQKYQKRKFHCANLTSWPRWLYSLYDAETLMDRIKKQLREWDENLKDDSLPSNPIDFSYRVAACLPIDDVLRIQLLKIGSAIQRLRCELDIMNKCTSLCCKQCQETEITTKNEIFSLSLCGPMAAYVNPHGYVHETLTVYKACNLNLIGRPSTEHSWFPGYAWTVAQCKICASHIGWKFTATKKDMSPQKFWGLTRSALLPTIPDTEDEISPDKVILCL
T1 sequence (Q16531 2-1140 partner limits assumed): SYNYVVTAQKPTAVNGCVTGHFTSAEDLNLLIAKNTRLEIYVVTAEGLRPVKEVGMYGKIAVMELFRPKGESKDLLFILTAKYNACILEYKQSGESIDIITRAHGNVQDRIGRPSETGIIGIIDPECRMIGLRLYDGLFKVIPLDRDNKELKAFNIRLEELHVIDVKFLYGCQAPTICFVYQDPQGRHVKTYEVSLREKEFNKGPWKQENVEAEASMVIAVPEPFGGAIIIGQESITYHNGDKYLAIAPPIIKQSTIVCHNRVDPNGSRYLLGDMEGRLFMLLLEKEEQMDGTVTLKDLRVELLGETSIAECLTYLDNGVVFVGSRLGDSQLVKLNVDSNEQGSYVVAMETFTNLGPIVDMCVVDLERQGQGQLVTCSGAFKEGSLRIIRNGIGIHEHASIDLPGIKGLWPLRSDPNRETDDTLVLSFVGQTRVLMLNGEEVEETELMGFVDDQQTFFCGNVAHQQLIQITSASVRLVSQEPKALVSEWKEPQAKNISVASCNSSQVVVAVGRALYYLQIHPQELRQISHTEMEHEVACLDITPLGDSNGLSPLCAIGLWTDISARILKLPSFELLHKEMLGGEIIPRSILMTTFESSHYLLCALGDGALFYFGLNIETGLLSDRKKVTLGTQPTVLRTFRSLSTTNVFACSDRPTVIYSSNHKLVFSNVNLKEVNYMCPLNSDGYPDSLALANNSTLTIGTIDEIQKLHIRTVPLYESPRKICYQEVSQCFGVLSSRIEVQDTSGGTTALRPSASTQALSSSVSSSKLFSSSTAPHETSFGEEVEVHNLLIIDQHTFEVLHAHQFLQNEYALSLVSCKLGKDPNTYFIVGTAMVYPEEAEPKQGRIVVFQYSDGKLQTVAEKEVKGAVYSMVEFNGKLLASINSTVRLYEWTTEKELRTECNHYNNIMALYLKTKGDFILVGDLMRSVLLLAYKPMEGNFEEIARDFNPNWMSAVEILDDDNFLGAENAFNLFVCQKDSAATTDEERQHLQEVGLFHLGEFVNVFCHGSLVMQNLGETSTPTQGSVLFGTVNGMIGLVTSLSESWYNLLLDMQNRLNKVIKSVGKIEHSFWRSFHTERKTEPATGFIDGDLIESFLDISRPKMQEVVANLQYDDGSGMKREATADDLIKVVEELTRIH
wild-type human CRBN protein, sequence (Q96SW2 whole entry): as the sequence (Q96SW2 whole entry) above

| IC50 [1] [nM] | SMILES | DC50 (IKZF2; [2]) [nM] | Dmax (IKZF2) [%] | further results |
| --- | --- | --- | --- | --- |
| 1400 | O=C1CCC(N2Cc3c(ccc4c3N3CCNC[C@H]3CO4)C2=O)C(=O)N1 (stereo in doubt) [Compound B16, (R)-3-((S)-3-oxo-1,3,7,7a,8,9,10,11-octahydro-2H-pyrazino[1′,2′:4,5][1,4]oxazino[3,2-e]isoindol-2-yl)piperidine-2,6-dione] |  |  |  |
| 2100 | O=C1CCC(N2Cc3cc4c(cc3C2=O)OC[C@@H]2CNCCN42)C(=O)N1 (stereo partly drawn) [Compound B1, 3-((S)-8-oxo-1,2,3,4,4a,5,8,10-octahydro-9H-pyrazino[1′,2′:4,5][1,4]oxazino[2,3-f]isoindol-9-yl)piperidine-2,6-dione hydrochloride salt] |  |  |  |
| 5200 | O=C1CC[C@@H](N2Cc3cc4c(cc3C2=O)OC[C@@H]2CNCCN42)C(=O)N1 [Compound B2, (R)-3-((S)-8-oxo-1,2,3,4,4a,5,8,10-octahydro-9H-pyrazino[1′,2′:4,5][1,4]oxazino[2,3-f]isoindol-9-yl)piperidine-2,6-dione] |  |  |  |
| 1700 | CC(C)(C)OC(=O)N1CCN2c3cc4c(cc3OC[C@@H]2C1)C(=O)N([C@H]1CCC(=O)NC1=O)C4 [Compound B3, (S)-tert-butyl (4aS)-9-(2,6-dioxopiperidin-3-yl)-8-oxo-1,2,4a,5,9,10-hexahydro-8H-pyrazino[1′,2′:4,5][1,4]oxazino[2,3-f]isoindole-3(4H)-carboxylate] |  |  |  |
| 3500 | CC(C)(C)OC(=O)N1CCN2c3cc4c(cc3OC[C@@H]2C1)C(=O)N([C@@H]1CCC(=O)NC1=O)C4 [Compound B4, (R)-tert-butyl (4aS)-9-(2,6-dioxopiperidin-3-yl)-8-oxo-1,2,4a,5,9,10-hexahydro-8H-pyrazino[1′,2′:4,5][1,4]oxazino[2,3-f]isoindole-3(4H)-carboxylate] |  |  |  |
| 920 | CN1CCN2c3cc4c(cc3OC[C@@H]2C1)C(=O)N(C1CCC(=O)NC1=O)C4 (stereo partly drawn) [Compound B5, 3-((S)-3-methyl-8-oxo-1,2,3,4,4a,5,8,10-octahydro-9H-pyrazino[1′,2′:4,5][1,4]oxazino[2,3-f]isoindol-9-yl)piperidine-2,6-dione] |  |  |  |
| 3100 | O=C1CCC(N2Cc3cc4c(cc3C2=O)OC[C@H]2CNCCN42)C(=O)N1 (stereo partly drawn) [Compound B6, 3-((R)-8-oxo-1,2,3,4,4a,5,8,10-octahydro-9H-pyrazino[1′,2′:4,5][1,4]oxazino[2,3-f]isoindol-9-yl)piperidine-2,6-dione trifluoroacetate salt] |  |  |  |
| 740 | CN1C[C@@H]2CNCCN2c2cc3c(cc21)C(=O)N(C1CCC(=O)NC1=O)C3 (stereo partly drawn) [Compound B7, 3-((S)-6-methyl-8-oxo-2,3,4,4a,5,6,8,10-octahydropyrazino[1,2-a]pyrrolo[3,4-g]quinoxalin-9(1H)-yl)piperidine-2,6-dione trifluoroacetate salt] |  |  |  |
| 940 | CN1CCN2c3cc4c(cc3N(C)C[C@@H]2C1)C(=O)N(C1CCC(=O)NC1=O)C4 (stereo partly drawn) [Compound B8, 3-((S)-3,6-dimethyl-8-oxo-2,3,4,4a,5,6,8,10-octahydropyrazino[1,2-a]pyrrolo[3,4-g]quinoxalin-9(1H)-yl)piperidine-2,6-dione] |  |  |  |
| 600 | CN1CCN2c3cc4c(cc3NC(=O)[C@@H]2C1)C(=O)N(C1CCC(=O)NC1=O)C4 (stereo partly drawn) [Compound B10, (4aS)-9-(2,6-dioxopiperidin-3-yl)-3-methyl-2,3,4,4a,9,10-hexahydropyrazino[1,2-a]pyrrolo[3,4-g]quinoxaline-5,8(1H,6H)-dione] |  |  |  |
| 580 | CN1CCN2c3ccc4c(c3N(C)C[C@@H]2C1)CN(C1CCC(=O)NC1=O)C4=O (stereo partly drawn) [Compound B12, 3-((S)-4,7-dimethyl-1-oxo-3,4,5,5a,6,7,8,9-octahydropyrazino[1,2-a]pyrrolo[3,4-f]quinoxalin-2(1H)-yl)piperidine-2,6-dione] |  |  |  |
| 130 | N[C@H]1C[C@H]2COc3cc4c(cc3N2C1)CN([C@H]1CCC(=O)NC1=O)C4=O [Compound B17, (S)-3-((2S,3aS)-2-amino-7-oxo-2,3,3a,4,7,9-hexahydro-1H,8H-pyrrolo[1′,2′:4,5][1,4]oxazino[2,3-f]isoindol-8-yl)piperidine-2,6-dione] |  |  |  |
| 220 | N[C@H]1C[C@H]2COc3cc4c(cc3N2C1)C(=O)N(C1CCC(=O)NC1=O)C4=O (stereo partly shown) [Compound B18] |  |  |  |
| 17500 | CN(C(=O)c1ccc2c(n1)OC[C@H]1CNCCN21)C1CCC(=O)NC1=O (stereo partly drawn) [Compound B20, (4aR)-N-(2,6-dioxopiperidin-3-yl)-N-methyl-1,2,3,4,4a,5-hexahydropyrazino[1,2-d]pyrido[2,3-b][1,4]oxazine-8-carboxamide] |  |  |  |
| 4600 | CN(C(=O)c1ccc2c(c1)OC[C@H]1CNCCN21)C1CCC(=O)NC1=O (stereo partly drawn) [Compound B21, (4aR)—N-(2,6-dioxopiperidin-3-yl)-N-methyl-1,2,3,4,4a,5-hexahydrobenzo[b]pyrazino[1,2-d][1,4]oxazine-8-carboxamide] |  |  |  |
| 23000 | O=C1CC[C@H](NC(=O)c2ccc3c(c2)OC[C@H]2CNCCN32)C(=O)N1 [Compound B22, (R)—N—((S)-2,6-dioxopiperidin-3-yl)-1,2,3,4,4a,5-hexahydrobenzo[b]pyrazino[1,2-d][1,4]oxazine-8-carboxamide] |  |  |  |

Continued, compound first:

| SMILES | IC50 [1] [nM] | DC50 (IKZF2; [2]) [nM] | Dmax (IKZF2) [%] | further results |
| --- | --- | --- | --- | --- |
| O=C1CC[C@H](NC(=O)c2ccc3c(n2)OC[C@H]2CNCCN32)C(=O)N1 [Compound B19, (R)-N-((S)-2,6-dioxopiperidin-3-yl)-1,2,3,4,4a,5-hexahydropyrazino[1,2-d]pyrido [2,3-b][1,4]oxazine-8-carboxamide] | 30200 |  |  |  |
| O=C1CCC(N2Cc3cc4c(cc3C2=O)OC[C@H]2CN(CC3CCCC3)CCN42)C(=O)N1 (stereo partly drawn) [Compound C30, 3-((R)-3-(cyclopentylmethyl)-8-oxo-1,2,3,4,4a,5,8,10-octahydro-9H-pyrazino[1′,2′:4,5][1,4]oxazino[2,3-f]isoindol-9-yl)piperidine-2,6-dione] |  | > 1000 | 0 |  |
| O=C1CC[C@H](N2Cc3cc4c(cc3C2=O)OC[C@@H]2CN(CC3CCC3)CCN42)C(=O)N1 [Compound C31, (S)-3-((S)-3-(cyclobutylmethyl)-8-oxo-1,2,3,4,4a,5,8,10-octahydro-9H-pyrazino[1′,2′:4,5][1,4]oxazino[2,3-f]isoindol-9-yl)piperidine-2,6-dione] |  | 1260 | 58 |  |
| O=C1CC[C@H](N2Cc3cc4c(cc3C2=O)OC[C@@H]2CN(CCC3CCCCC3)CCN42)C(=O)N1 [Compound C32, (S)-3-((S)-3-(2-cyclohexylethyl)-8-oxo-1,2,3,4,4a,5,8,10-octahydro-9H-pyrazino[1′,2′:4,5][1,4]oxazino[2,3-f]isoindol-9-yl)piperidine-2,6-dione] |  | 324 | 71 |  |
| C[C@H]1CC[C@H](CN2CCN3c4cc5c(cc4OC[C@@H]3C2)C(=O)N([C@H]2CCC(=O)NC2=O)C5)CC1 [Compound C33, (S)-3-((S)-3-(((1r,4S)-4-methylcyclohexyl)methyl)-8-oxo-1,2,3,4,4a,5,8,10-octahydro-9H-pyrazino[1′,2′:4,5][1,4]oxazino[2,3-f]isoindol-9-yl)piperidine-2,6-dione] |  | 515 | 67 |  |
| CC1(C)CCC(CN2CCN3c4cc5c(cc4OC[C@@H]3C2)C(=O)N([C@H]2CCC(=O)NC2=O)C5)CC1 [Compound C34, (S)-3-((S)-3-((4,4-dimethylcyclohexyl)methyl)-8-oxo-1,2,3,4,4a,5,8,10-octahydro-9H-pyrazino[1′,2′:4,5][1,4]oxazino[2,3-f]isoindol-9-yl)piperidine-2,6-dione] |  | 414 | 68 |  |
| O=C1CC[C@H](N2Cc3cc4c(cc3C2=O)OC[C@@H]2CN(CC3CCC5(CC3)COC5)CCN42)C(=O)N1 [Compound C35, (S)-3-((S)-3-((2-oxaspiro[3.5]nonan-7-yl)methyl)-8-oxo-1,2,3,4,4a,5,8,10-octahydro-9H-pyrazino[1′,2′:4,5][1,4]oxazino[2,3-f]isoindol-9-yl)piperidine-2,6-dione] |  | 933 | 66 |  |
| O=C1CC[C@H](N2Cc3cc4c(cc3C2=O)OC[C@@H]2CN(CC3CC5CCC3C5)CCN42)C(=O)N1 (stereo partly drawn) [Compound C36, (3S)-3-((4aS)-3-(bicyclo[2.2.1]heptan-2-ylmethyl)-8-oxo-1,2,3,4,4a,5,8,10-octahydro-9H-pyrazino[1′,2′:4,5][1,4]oxazino[2,3-f]isoindol-9-yl)piperidine-2,6-dione] |  | 376 | 68 |  |
| O=C1CC[C@H](N2Cc3cc4c(cc3C2=O)OC[C@@H]2CN(CC3CC5CCC3CC5)CCN42)C(=O)N1 (stereo partly drawn) [Compound C37, (3S)-3-((4aS)-3-(bicyclo[2.2.2]octan-2-ylmethyl)-8-oxo-1,2,3,4,4a,5,8,10-octahydro-9H-pyrazino[1′,2′:4,5][1,4]oxazino[2,3-f]isoindol-9-yl)piperidine-2,6-dione] |  | 318 | 69 |  |
| CC(C)(C)OC(=O)N1CCC2(CCC(CN3CCN4c5cc6c(cc5OC[C@@H]4C3)C(=O)N([C@H]3CCC(=O)NC3=O)C6)CC2)CC1 [Compound C38, tert-butyl 9-(((S)-9-((S)-2,6-dioxopiperidin-3-yl)-8-oxo-1,2,4a,5,9,10-hexahydro-8H-pyrazino[1′,2′:4,5][1,4]oxazino[2,3-f]isoindol-3(4H)-yl)methyl)-3-azaspiro[5.5]undecane-3-carboxylate] |  | 424 | 57 |  |
| O=C1CCC(N2Cc3cc(C4CCN(Cc5ccccc5)CC4)ccc3C2=O)C(=O)N1 (stereo not shown) [DKY709] |  | 62 |  | Dmax (IKZF2; [2]): 67% |
